How the values were obtained:
p38 = p38 phosphorylation in HMO6 cells (western blot); assay type: cell-based, human; settings: Rg3 5 μg/ml, western blot (FIG. 18)
Method: FIG. 18 is a photograph showing a result of western blot analysis for confirming the degree of phosphorylation of ERK (extracellular-regulated kinase) and p38, according to an embodiment of the present invention. Depending on the presence of Rg3, the levels of phospho-ERK and phospho-p38 protein were investigated by immune-blotting. HMO6 cells were treated with Rg3 (5 μg/ml) after plated on 60 mm cell culture plates and western blot analysis was performed after the cells were placed in phenol red negative/sere-free DMEM medium for 1 h. The western blot analysis was carried out three times independently.
(§1) HMO6 cells were lysed in 1% RIPA buffer containing protease and phosphatase inhibitors (Roche, Mannheim, Germany) and whole-cell lysates were separated on 10% sodium dodecyl sulfate-polyacrylamide gel electrophoresis. After electrophoresis, the proteins were transferred to polyvinylidene fluoride membranes, and the membranes were blocked with 5% skim milk in Tris-buffered saline solution containing 0.1% Tween-20. The membranes were then immunoblotted with primary antibodies, anti-phospho-p38, anti-p38, anti-phospho-ERK, anti-ERK, and anti-f3-actin (Santa Cruz Biotechnology, USA), followed by incubation with horseradish peroxidase-conjugated anti-rabbit or anti-mouse secondary antibodies (Stressgen, USA). Blots were developed using an enhanced chemiluminescent solution (Thermo, USA).

NEP = NEP protein expression in HMO6 cells (western blot, immunocytochemistry); assay type: cell-based, human; settings: 5 μg/ml Rg3, 24 h (FIG. 19)
Method: FIG. 19 represents an images showing a result of western blot analysis of the expression of NEP (neprilysin) and IDE (insulin-degrading enzyme) in HMO6 cells (A); graphs representing the above result quantitatively (B and C), and fluorescence microscopic images representing immunocytochemical analyses (D and E). The expression of NEP and IDE in HMO6 cells was analyzed by western blot analysis and immunocytochemistry after treating Aβ42 (5 μM) or Rg3 (2.5 or 5 μg/ml) for 24 h to HMO6 cells in serum-free DMEM medium plated on 60 mm cell culture plates or chamber slides. The results are shown as mean±SD. * P<0.05, ** P<0.01, *** P<0.001.
as §1, with “Blots were developed using an enhanced chemiluminescent solution (Thermo, USA).” left out

Aβ42 = assay: Passive avoidance trials (PAT) in Aβ42-infused animals; assay type: in vivo; settings: Aβ42 rats administered Rg3 (FIG. 25)
Method: Male BALB/c mice (10 weeks old) were purchased from Samtaco (Korea), and were adapted to laboratory conditions (temperature: 20±2° C., relative humidity: 50%, light/dark cycle: 12 h) for 1 week. Five-week-old male Sprague-Dawley rats were obtained from Daehan-Biolink (Korea) for learning and memory testing. The animals (n=5/group) were maintained at a constant temperature (23±2° C.), relative humidity, 55±10%, and 12-h light/dark cycle. The animals were fed a standard rodent chow and purified water ad libitum. Lyophilized Aβ42 (0.5 mg, Bachem Torrance, USA) was resuspended in PBS (pH 7.4) by shaking for 7 days at room temperature to prepare the fibrillar-aggregated Aβ42 (fAβ42). At 10 weeks of age, mice were anesthetized, and 1 μl fAβ42 (350 μM stock concentration) was stereotaxically injected unilaterally into the parietal cortex (anterior 1.7 mm, lateral 1 mm, and ventral 1 mm to the bregma above the hippocampus within 1 min) (Mohajeri et al., J. Biol. Chem., 277: 35460-35465, 2002)
The present inventor performed learning and memory tests using rats in order to investigate whether Rg3 can ameliorate symptoms of Alzheimer's model animals in deed. […] The latency time of stay in the light room from lights-on was recorded following an electric shock (1 mA for 2 s) in the dark compartment. […] The mean time spent to escape onto the platform was recorded.

CC(C)=CCC[C@](C)(O)[C@H]1CC[C@]2(C)[C@@H]1[C@H](O)C[C@@H]1[C@@]3(C)CC[C@H](O[C@@H]4O[C@H](CO)[C@@H](O)[C@H](O)[C@H]4O[C@@H]4O[C@H](CO)[C@@H](O)[C@H](O)[C@H]4O)C(C)(C)[C@@H]3CC[C@]12C [ginsenoside Rg3]
phosphorylation of p38 (p38): promoted the phosphorylation | NEP expression in cells (NEP): distinctively expressed | learning and memory functions, passive avoidance (Aβ42): maintained learning and memory functions at 4-5 weeks
